Experimental data: PubChem BioAssay (NCI)
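In this assay, cells in 96-well plates receive the compound at five concentrations for 48 hours. Endpoints are linearly interpolated between the surrounding concentrations. Abbreviation: GI50, concentration required for 50% inhibition of growth. At the TGI there is no net growth.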

Assays:
Experiment in all cases: NCI tumour cell line growth inhibition, 48 h
[1] = tested on: 786-0 renal
[2] = tested on: A498 renal
[3] = tested on: A549 NSCLC
[4] = tested on: ACHN renal
[5] = tested on: BT-549 breast
[6] = tested on: CAKI-1 renal
[7] = tested on: COLO 205 colon
[8] = tested on: DU-145 prostate
[9] = tested on: EKVX NSCLC
[10] = tested on: HCC-2998 colon
[11] = tested on: HCT-116 colon
[12] = tested on: HCT-15 colon
[13] = tested on: HL-60(TB) leukemia
[14] = tested on: HOP-62 NSCLC
[15] = tested on: HOP-92 NSCLC
[16] = tested on: HS 578T breast
[17] = tested on: HT29 colon
[18] = tested on: KM12 colon
[19] = tested on: LOX IMVI melanoma
[20] = tested on: M14 melanoma
[21] = tested on: MALME-3M melanoma
[22] = tested on: MCF7 breast
[23] = tested on: MDA-MB-231 breast
[24] = tested on: MDA-MB-435
[25] = tested on: MOLT-4 leukemia
[26] = tested on: NCI-H226 lung
[27] = tested on: NCI-H23 lung
[28] = tested on: NCI-H460 lung
[29] = tested on: NCI-H522 lung
[30] = tested on: NCI/ADR-RES ovarian
[31] = tested on: OVCAR-3 ovarian
[32] = tested on: OVCAR-4 ovarian
[33] = tested on: OVCAR-5 ovarian
[34] = tested on: OVCAR-8 ovarian
[35] = tested on: PC-3 prostate
[36] = tested on: RPMI-8226 leukemia
[37] = tested on: RXF 393 renal
[38] = tested on: SF-268 CNS
[39] = tested on: SF-295 CNS
[40] = tested on: SF-539 CNS
[41] = tested on: SK-MEL-2 melanoma
[42] = tested on: SK-MEL-28 melanoma
[43] = tested on: SK-MEL-5 melanoma
[44] = tested on: SK-OV-3 ovarian
[45] = tested on: SN12C renal
[46] = tested on: SNB-19 CNS
[47] = tested on: SNB-75 CNS
[48] = tested on: SR leukemia
[49] = tested on: SW-620 colon
[50] = tested on: T-47D breast
[51] = tested on: TK-10 renal
[52] = tested on: U251 CNS
[53] = tested on: UACC-257 melanoma
[54] = tested on: UACC-62 melanoma
[55] = tested on: UO-31 renal

## O=S(=O)(Nc1ccc2ccccc2c1)N1CCCCC1
[1]
  GI50: 13.6 µM
  TGI: 30 µM
[2]
  GI50: 3.33 µM
  TGI: 15.7 µM
[3]
  GI50: 11.9 µM
  TGI: 38.1 µM
[4]
  GI50: 18.1 µM
  TGI: 60.9 µM
[5]
  GI50: 13.8 µM
  TGI: 28.4 µM
[6]
  GI50: 1.81 µM
  TGI: 7.97 µM
[7]
  GI50: 9.36 µM
  TGI: 25.3 µM
[8]
  GI50: 12.1 µM
  TGI: 30.3 µM
[9]
  GI50: 7.99 µM
  TGI: 41 µM
[10]
  GI50: 8.35 µM
  TGI: 22.2 µM
[11]
  GI50: 9.94 µM
  TGI: 23.4 µM
[12]
  GI50: 8 µM
  TGI: 35.2 µM
[13]
  GI50: 9.31 µM
  TGI: 43.2 µM
[14]
  GI50: 3.93 µM
  TGI: 18.7 µM
[15]
  GI50: 5.42 µM
  TGI: 20.4 µM
[16]
  GI50: 11.9 µM
  TGI: 33.6 µM
[17]
  GI50: 4.87 µM
  TGI: 18.9 µM
[18]
  GI50: 4.21 µM
  TGI: 17.2 µM
[19]
  GI50: 9.97 µM
  TGI: 24.6 µM
[20]
  GI50: 8.94 µM
  TGI: 25.5 µM
[21]
  GI50: 14.5 µM
  TGI: 34 µM
[22]
  GI50: 9.55 µM
  TGI: 88.9 µM
[23]
  GI50: 10.1 µM
  TGI: 25 µM
[24]
  GI50: 1.91 µM
  TGI: 10.8 µM
[25]
  GI50: 7.21 µM
  TGI: 58 µM
[26]
  GI50: 14.8 µM
  TGI: 33.2 µM
[27]
  GI50: 12.2 µM
  TGI: 34 µM
[28]
  GI50: 10.1 µM
  TGI: 23.3 µM
[29]
  GI50: 2.49 µM
  TGI: 8 µM
[30]
  GI50: 4.09 µM
  TGI: 22.2 µM
[31]
  GI50: 4.71 µM
  TGI: 16.7 µM
[32]
  GI50: 15.6 µM
  TGI: 50.1 µM
[33]
  GI50: 19.5 µM
  TGI: 43.7 µM
[34]
  GI50: 19.6 µM
  TGI: 57 µM
[35]
  GI50: 13.1 µM
  TGI: 41.5 µM
[36]
  GI50: 17.8 µM
  TGI: 75.5 µM
[37]
  GI50: 5.58 µM
  TGI: 19.7 µM
[38]
  GI50: 11.7 µM
  TGI: 28.8 µM
[39]
  GI50: 2.4 µM
  TGI: 15.2 µM
[40]
  GI50: 10.5 µM
  TGI: 24.9 µM
[41]
  GI50: 9.85 µM
  TGI: 23.6 µM
[42]
  GI50: 12 µM
  TGI: 28 µM
[43]
  GI50: 8.33 µM
  TGI: 21 µM
[44]
  GI50: 8.93 µM
  TGI: 37.4 µM
[45]
  GI50: 13.2 µM
  TGI: 29.1 µM
[46]
  GI50: 18.4 µM
  TGI: > 100 µM
[47]
  GI50: 2.38 µM
  TGI: 20.7 µM
[48]
  GI50: 4.15 µM
  TGI: 44.6 µM
[49]
  GI50: 5.7 µM
  TGI: 20.7 µM
[50]
  GI50: 11 µM
  TGI: 45.8 µM
[51]
  GI50: 12.7 µM
  TGI: 32.1 µM
[52]
  GI50: 12 µM
  TGI: 26.7 µM
[53]
  GI50: 10.1 µM
  TGI: 24 µM
[54]
  GI50: 8.7 µM
  TGI: 22.2 µM
[55]
  GI50: 6.87 µM
  TGI: 22.9 µM
